One data set addresses T1, human GLP-1 receptor (Homo sapiens, UniProt P43220).
T1 construct: expressed in transfected cells
As to the kind of experiment: GLP-1 receptor potency assay (cAMP AlphaScreen, HEK293 cells stably expressing GLP-1R). Format: cell-based. The following applies: cAMP response, HEK293 cells expressing human GLP-1R; read-out: EC50 GLP-1. An outline of the steps:
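cAMP accumulation was quantified by AlphaScreen in G418-selected HEK293 cells stably transfected with human GLP-1R cDNA. Concentration-response data were normalized between vehicle and positive control. EC50 and maximal response came from 4PL curve fitting.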
Background: In Alpha technology, singlet oxygen from a donor bead excites a nearby acceptor bead.

For a further data set, the target named is T2, human GLP-2 receptor (Homo sapiens, UniProt O95838, D470N).
T2 sequence (O95838 1-553 D470N): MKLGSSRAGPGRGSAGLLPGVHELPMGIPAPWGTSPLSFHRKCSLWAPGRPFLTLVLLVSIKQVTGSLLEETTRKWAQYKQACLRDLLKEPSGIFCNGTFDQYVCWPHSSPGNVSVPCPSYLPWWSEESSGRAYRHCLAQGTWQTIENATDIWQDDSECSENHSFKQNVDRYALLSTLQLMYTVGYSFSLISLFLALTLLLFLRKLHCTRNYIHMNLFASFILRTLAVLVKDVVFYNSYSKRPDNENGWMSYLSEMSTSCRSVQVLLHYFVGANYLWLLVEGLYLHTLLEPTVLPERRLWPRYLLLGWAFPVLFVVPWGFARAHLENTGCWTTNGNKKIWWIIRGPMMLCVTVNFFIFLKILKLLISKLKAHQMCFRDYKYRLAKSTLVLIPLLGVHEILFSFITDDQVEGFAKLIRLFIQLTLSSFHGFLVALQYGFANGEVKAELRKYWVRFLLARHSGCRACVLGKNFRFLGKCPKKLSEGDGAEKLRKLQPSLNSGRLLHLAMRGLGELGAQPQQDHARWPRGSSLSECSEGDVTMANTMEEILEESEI
As to the kind of experiment: GLP-2 receptor potency assay (cAMP AlphaScreen, HEK293 cells stably expressing GLP-2R). The data set is classed as cell-based. The following applies: cAMP response, HEK293 cells expressing human GLP-2R. The gist of the method:
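EC50 and maximal response were fitted with a 4PL model after normalization to positive control and vehicle. cAMP accumulation was quantified by AlphaScreen in a stable HEK293 clone transfected with human GLP-2 receptor.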

Data set [1] is described as follows: Solubility assessment by turbidity absorbance at 325 nm. The data set is classed as physicochemical. The following applies: 1 mg/ml peptide. On the procedure: A stock solution of the test peptide (2 mg/ml; determined from the weighed amount of peptide) in demineralized water adjusted to pH 2.5 with HCl was prepared, and aliquots were diluted 1:1 in 100 mM acetate buffer (pH 4.0 and pH 5.0), 100 mM histidine buffer (pH 6.0 and pH 7.0) and 100 mM phosphate buffer (pH 6.0, pH 7.0 and pH7.5), respectively, and loaded in a standard flat-bottom, non-sterile 96-well UV Microplate. The absorbance of samples (single samples, n=1) at 280 and 325 nm was measured in an absorbance-based plate reader, which was preheated to ambient temperature (typically 25° C.).

The subject of data set [2] is Normal chow-fed C57BL/6J male mice. As to the kind of experiment: Effect on fasting glucose and intestinal weight in normal mice. The data set is classed as in vivo. The following applies: for Small intestinal wet weight: 250 nmol/kg s.c. once daily for 4 days, sacrificed 24 hours after final dosing; for Fasting blood glucose: day 0, fasted mice, after a single s.c. injection, 250 nmol/kg. On the procedure: Normal chow-fed C57BL/6J male mice were used. The mice were kept in standard housing conditions, light-, temperature-, and humidity-controlled room (12:12 h light-dark cycle, with lights on at 06.00-18.00 h; 20-22° C.; 50-80% relative humidity). Each dosing group consisted of 6 animals. Mice were dosed once daily with 250 nmol/kg with the test compounds or vehicle for 4 days via subcutaneous administration.
On day 0 mice were fasted and blood glucose levels measured after a single s.c. injection with peptides. Animals were sacrificed 24 hours after final dosing on day 3, and small intestinal wet weights were measured.

Setting [3] is: 100 mM acetate buffer pH 4.0, ambient temperature, read-out: Solubility, Acetate buffer pH 4.
[4] abbreviates: 100 mM acetate buffer pH 5.0, ambient temperature, read-out: Solubility, Acetate buffer pH 5.
[5] abbreviates: 100 mM histidine buffer pH 6.0, ambient temperature, read-out: Solubility, Histidine buffer pH 6.
The mark [6] stands for this setting: 100 mM histidine buffer pH 7.0, ambient temperature, read-out: Solubility, Histidine buffer pH 7.
Where [7] appears, read: 100 mM phosphate buffer pH 6.0, ambient temperature, read-out: Solubility, Phosphate buffer pH 6.
The mark [8] stands for this setting: 100 mM phosphate buffer pH 7.0, ambient temperature, read-out: Solubility, Phosphate buffer pH 7.
Setting [9] is: 100 mM phosphate buffer pH 7.5, ambient temperature, read-out: Solubility, Phosphate buffer pH 7.5.

SMILES strings stand for the structures. Where two headings read alike, the source gives them in different places. Square brackets hold non-standard residues; d marks the D form. Peptide text beside a SMILES is read from it. Aib = CC(C)(N)C(=O)O

T1 sequence (P43220 24-463): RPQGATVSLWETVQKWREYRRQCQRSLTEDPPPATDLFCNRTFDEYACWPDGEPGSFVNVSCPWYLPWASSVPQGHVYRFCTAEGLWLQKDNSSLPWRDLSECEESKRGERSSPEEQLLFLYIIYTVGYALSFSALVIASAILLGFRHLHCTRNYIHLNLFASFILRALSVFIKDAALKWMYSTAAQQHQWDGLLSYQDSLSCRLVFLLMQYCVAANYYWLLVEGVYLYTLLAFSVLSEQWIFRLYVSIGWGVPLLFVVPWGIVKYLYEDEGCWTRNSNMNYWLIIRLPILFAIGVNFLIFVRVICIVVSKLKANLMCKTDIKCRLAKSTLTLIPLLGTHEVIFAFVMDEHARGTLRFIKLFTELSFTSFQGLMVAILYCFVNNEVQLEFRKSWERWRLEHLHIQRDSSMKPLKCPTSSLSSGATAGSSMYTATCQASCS

As to `CC[C@H](C)[C@H](NC(=O)[C@H](Cc1ccccc1)NC(=O)[C@H](CC(=O)O)NC(=O)[C@H](CCCNC(=N)N)NC(=O)[C@H](C)NC(=O)[C@H](C)NC(=O)[C@H](CCC(N)=O)NC(=O)[C@H](CCC(=O)O)NC(=O)[C@H](CC(=O)O)NC(=O)[C@H](CC(C)C)NC(=O)[C@@H](NC(=O)[C@@H](NC(=O)[C@H](C)NC(=O)[C@H](CC(C)C)NC(=O)[C@H](CCC(=O)O)NC(=O)[C@H](CO)NC(=O)[C@@H](NC(=O)[C@H](Cc1ccccc1)NC(=O)[C@H](CO)NC(=O)CNC(=O)[C@H](CCC(=O)O)NC(=O)C(C)(C)NC(=O)[C@@H](N)Cc1c[nH]cn1)[C@@H](C)O)[C@@H](C)O)[C@@H](C)CC)C(=O)N[C@@H](C)C(=O)N[C@@H](Cc1c[nH]c2ccccc12)C(=O)N[C@@H](CC(C)C)C(=O)N[C@H](C(=O)N[C@@H](Cc1c[nH]cn1)C(=O)N[C@@H](Cc1c[nH]cn1)C(=O)N[C@@H](CCCCN)C(=O)N[C@H](C(=O)N[C@H](C(=O)N[C@@H](CC(=O)O)C(=O)O)[C@@H](C)O)[C@@H](C)CC)[C@@H](C)CC` [Compound 6] (H-H[Aib]EGSFTSELATILDEQAARDFIAWLIHHKITD-OH), the values for the EC50 on human GLP-1 receptor and on human GLP-2 receptor were 0.014 nM and 0.047 nM, respectively. Moreover, the solubility (in general, the concentration that dissolves in the medium under given conditions) was at least 1000 µg/mL in data set [1] (setting [3]); below 1000 µg/mL in data set [1] (setting [4]); below 1000 µg/mL in data set [1] (setting [5]); at least 1000 µg/mL in data set [1] (setting [6]); below 1000 µg/mL in data set [1] (setting [7]); at least 1000 µg/mL in data set [1] (setting [8]). Besides, the solubility in data set [1] (setting [9]) is below 1000 µg/mL.
Consider `CC[C@H](C)[C@H](NC(=O)[C@H](Cc1ccccc1)NC(=O)[C@H](CC(=O)O)NC(=O)[C@H](CCCNC(=N)N)NC(=O)[C@H](C)NC(=O)[C@H](C)NC(=O)[C@H](CCC(N)=O)NC(=O)[C@H](CCC(=O)O)NC(=O)[C@H](CC(=O)O)NC(=O)[C@H](CC(C)C)NC(=O)[C@@H](NC(=O)[C@@H](NC(=O)[C@H](C)NC(=O)[C@H](CC(C)C)NC(=O)[C@H](CCC(=O)O)NC(=O)[C@H](CO)NC(=O)[C@@H](NC(=O)[C@H](Cc1ccccc1)NC(=O)[C@H](CO)NC(=O)CNC(=O)[C@H](CCC(=O)O)NC(=O)C(C)(C)NC(=O)[C@@H](N)Cc1c[nH]cn1)[C@@H](C)O)[C@@H](C)O)[C@@H](C)CC)C(=O)N[C@@H](C)C(=O)N[C@@H](Cc1c[nH]c2ccccc12)C(=O)N[C@@H](CC(C)C)C(=O)N[C@H](C(=O)N[C@@H](Cc1ccc(O)cc1)C(=O)N[C@@H](Cc1c[nH]cn1)C(=O)N[C@@H](CCCCN)C(=O)N[C@H](C(=O)N[C@H](C(=O)N[C@@H](CC(=O)O)C(=O)O)[C@@H](C)O)[C@@H](C)CC)[C@@H](C)CC` [Compound 7] (H-H[Aib]EGSFTSELATILDEQAARDFIAWLIYHKITD-OH), for which the figures for the concentration for a half-maximal effect (EC50) at human GLP-1 receptor and at human GLP-2 receptor were 0.017 nM and 0.11 nM, respectively. The solubility in data set [1] (setting [3]) was at least 1000 µg/mL; in data set [1] (setting [4]), below 1000 µg/mL; in data set [1] (setting [5]), below 1000 µg/mL; in data set [1] (setting [6]), at least 1000 µg/mL; in data set [1] (setting [7]) it was below 1000 µg/mL; in data set [1] (setting [8]), at least 1000 µg/mL. Moreover, the solubility in data set [1] (setting [9]) is at least 1000 µg/mL.
As for `CC[C@H](C)[C@H](NC(=O)[C@H](Cc1ccccc1)NC(=O)[C@H](CC(=O)O)NC(=O)[C@H](CCCNC(=N)N)NC(=O)[C@H](C)NC(=O)[C@H](C)NC(=O)[C@H](CCC(N)=O)NC(=O)[C@H](CCC(=O)O)NC(=O)[C@H](CC(=O)O)NC(=O)[C@H](CC(C)C)NC(=O)[C@@H](NC(=O)[C@@H](NC(=O)[C@H](C)NC(=O)[C@H](CC(C)C)NC(=O)[C@H](CCC(=O)O)NC(=O)[C@H](CO)NC(=O)[C@@H](NC(=O)[C@H](Cc1ccccc1)NC(=O)[C@H](CO)NC(=O)CNC(=O)[C@H](CCC(=O)O)NC(=O)C(C)(C)NC(=O)[C@@H](N)Cc1c[nH]cn1)[C@@H](C)O)[C@@H](C)O)[C@@H](C)CC)C(=O)N[C@@H](C)C(=O)N[C@@H](Cc1c[nH]c2ccccc12)C(=O)N[C@@H](CC(C)C)C(=O)N[C@H](C(=O)N[C@@H](CC(C)C)C(=O)N[C@@H](Cc1c[nH]cn1)C(=O)N[C@@H](CCCCN)C(=O)N[C@H](C(=O)N[C@H](C(=O)N[C@@H](CC(=O)O)C(=O)O)[C@@H](C)O)[C@@H](C)CC)[C@@H](C)CC` [Compound 8] (H-H[Aib]EGSFTSELATILDEQAARDFIAWLILHKITD-OH), the figures for the EC50 on human GLP-1 receptor and on human GLP-2 receptor were 0.021 nM and 0.084 nM, respectively. The solubility in data set [1] (setting [3]) was at least 1000 µg/mL; in data set [1] (setting [4]), below 1000 µg/mL; in data set [1] (setting [5]), below 1000 µg/mL; in data set [1] (setting [6]), at least 1000 µg/mL; in data set [1] (setting [7]), below 1000 µg/mL; in data set [1] (setting [8]) it was at least 1000 µg/mL. For the same molecule, in data set [1] (setting [9]), the solubility was at least 1000 µg/mL.
Consider `CC[C@H](C)[C@H](NC(=O)[C@H](Cc1ccccc1)NC(=O)[C@H](CC(=O)O)NC(=O)[C@H](CCCNC(=N)N)NC(=O)[C@H](C)NC(=O)[C@H](C)NC(=O)[C@H](CCC(N)=O)NC(=O)[C@H](CCC(=O)O)NC(=O)[C@H](CC(=O)O)NC(=O)[C@H](CC(C)C)NC(=O)[C@@H](NC(=O)[C@@H](NC(=O)[C@H](C)NC(=O)[C@H](CC(C)C)NC(=O)[C@H](CCC(=O)O)NC(=O)[C@H](CO)NC(=O)[C@@H](NC(=O)[C@H](Cc1ccccc1)NC(=O)[C@H](CO)NC(=O)CNC(=O)[C@H](CCC(=O)O)NC(=O)C(C)(C)NC(=O)[C@@H](N)Cc1c[nH]cn1)[C@@H](C)O)[C@@H](C)O)[C@@H](C)CC)C(=O)N[C@@H](C)C(=O)N[C@@H](Cc1c[nH]c2ccccc12)C(=O)N[C@@H](CC(C)C)C(=O)N[C@@H](Cc1c[nH]cn1)C(=O)N[C@@H](C)C(=O)N[C@@H](Cc1c[nH]cn1)C(=O)N[C@@H](CCCCN)C(=O)N[C@H](C(=O)N[C@H](C(=O)N[C@@H](CC(=O)O)C(=O)O)[C@@H](C)O)[C@@H](C)CC` [Compound 22] (H-H[Aib]EGSFTSELATILDEQAARDFIAWLHAHKITD-OH), for which, on human GLP-1 receptor, the EC50 – broadly, the concentration giving half of the maximal effect – came to 0.28 nM. This molecule registered a 50% effective concentration (EC50) on human GLP-2 receptor of 0.042 nM. Also, in data set [2], the “Small intestinal wet weight” value was 0.82 g and the Fasting blood glucose is recorded as 6.18 mM.
With `CC[C@H](C)[C@H](NC(=O)[C@H](Cc1ccccc1)NC(=O)[C@H](CC(=O)O)NC(=O)[C@H](CCCNC(=N)N)NC(=O)[C@H](C)NC(=O)[C@H](C)NC(=O)[C@H](CCC(N)=O)NC(=O)[C@H](CCC(=O)O)NC(=O)[C@H](CC(=O)O)NC(=O)[C@H](CC(C)C)NC(=O)[C@@H](NC(=O)[C@@H](NC(=O)[C@H](C)NC(=O)[C@H](CC(C)C)NC(=O)[C@H](CCC(=O)O)NC(=O)[C@H](CO)NC(=O)[C@@H](NC(=O)[C@H](Cc1ccccc1)NC(=O)[C@@H](NC(=O)CNC(=O)[C@H](CCC(=O)O)NC(=O)C(C)(C)NC(=O)[C@@H](N)Cc1c[nH]cn1)[C@@H](C)O)[C@@H](C)O)[C@@H](C)O)[C@@H](C)CC)C(=O)N[C@@H](C)C(=O)N[C@@H](Cc1c[nH]c2ccccc12)C(=O)N[C@@H](CC(C)C)C(=O)N[C@@H](CCC(N)=O)C(=O)N[C@@H](C)C(=O)N[C@@H](CCC(N)=O)C(=O)N[C@@H](CCCCN)C(=O)N[C@H](C(=O)N[C@H](C(=O)N[C@@H](CC(=O)O)C(=O)O)[C@@H](C)O)[C@@H](C)CC` [Compound 26] (H-H[Aib]EGTFTSELATILDEQAARDFIAWLQAQKITD-OH), the concentration giving a half-maximal response (EC50) at human GLP-1 receptor worked out at 0.013 nM. The molecule also returned an EC50 at human GLP-2 receptor of 0.19 nM. For the same molecule, in data set [2], the “Small intestinal wet weight” value is 0.78 g and the Fasting blood glucose amounted to 5.70 mM.

Values taken from patent publication US11130793B2, “GLP-1/GLP-2 dual agonists” (Zealand Pharma A/S, priority 2016, dated 2021).
